“And” between values parts separate entries of the source, which are not always exact repeats. Equal values may be shown once.
Key:
[1] = Functional metabolic assay to measure dose dependent changes in cell viability from drug treatment in Vero E6/TMPRSS2 cells (cotreated with P-gp inhibitor, Elacridar). […] Cytotoxicity is reported via measuring absorbance and analysis of MTT/MTS assays in uninfected cells. The assay has been performed by Icahn School of Medicine at Mount Sinai.; type: toxicity, cell-based, VeroE6/TMPRSS2; conditions: chlorocebus sabaeus, p-gp concentration 2 uM
[2] = Functional assay to measure dose dependent changes in cell viability from drug treatment in Vero E6 miRFP670 cells (cotreated with P-gp inhibitor, CP100356) that are infected with Dengue virus type 2 New Guinea C. […] Cytotoxicity is reported via via analysis of DAPI count using high-content imager. The assay has been performed by KU Leuven.; type: toxicity, cell-based, Vero C1008; conditions: chlorocebus sabaeus, with CP100356 (P-gp inhibitor, concentration not stated); p-gp concentration 500 nM
[3] = Vero E6/TMPRSS2 cells, with Elacridar (P-gp inhibitor, concentration not stated)

Structure (SMILES)	CC50 [1, 3]	CC10 ([1]; veroe6/tmprss2)	CC50 [2]	CC50 ([1]; veroe6/tmprss2)
NCc1cccc(NC(=O)C[C@H](NC(=O)OCc2ccccc2)c2ccc(OCc3ccccc3)c(Br)c2)c1	38.4 µM	0.148 µM		
CCc1cc(Cl)cc(C(=O)Nc2ccc3c(c2)CNC3)c1	> 50 µM	10.908 µM		
C=CC[C@H](Nc1cccc(-c2nn[nH]n2)c1)c1cc(Cl)cc(NC(=O)OCc2ccccc2)c1			6.9 µM	
CC(=Cc1cc(Cl)cc(NC(=O)OCc2ccccc2)c1)c1cccc(CN)c1			0.906 µM	
C=CC[C@H](Nc1cc(Cl)cc(NC(=O)OCc2ccccc2)c1)c1cccc(CN)c1			3.34 µM	
O=C(Nc1cc(Cl)cc(C(=O)Nc2ccc3c(c2)CCNC3)c1)OCc1ccccc1			2.91 µM	
N#Cc1cc(Cl)cc(C(=O)Nc2ccc3c(c2)CNC3)c1	> 50 µM	> 50 µM		
O=S(=O)(Nc1cccc(-c2nnn[nH]2)c1)c1cc(Cl)cc(-c2ccccc2)c1	> 50 µM	> 50 µM		
CNC(=O)c1cc(Cl)c(F)cc1NS(=O)(=O)c1ccc(Oc2ccccc2Cl)cc1			5.65 µM	
CCOc1cccc(-c2ccc(S(=O)(=O)Nc3cc4c(cc3C(=O)O)CCC4)cc2)c1	> 50 µM	5.671 µM		
CC(=Cc1cccc(CN)c1)c1cc(Cl)cc(NC(=O)OCc2ccccc2)c1			3.26 µM	
O=C(Nc1cc(Cl)cc([C@H](C#CCO)Nc2ccc(-c3nn[nH]n3)cc2)c1)OCc1ccccc1			> 50 µM	
N#C[C@H](Nc1cc(Cl)cc(NC(=O)OCc2ccccc2)c1)c1ccc(-c2nn[nH]n2)cc1			13 µM	
O=C(Nc1ccc2c(c1)CNC2)c1cc(Br)cc2[nH]c(C3CCOCC3)nc12	27.8 µM	3.442 µM		
O=C(O)Cn1ncc2cc(-c3cc(Cl)cc(NC(=O)OCc4ccccc4)c3)ccc21			> 50 µM	
O=C(Nc1cc(Cl)cc(N[C@H](C#CCO)c2ccc(-c3nn[nH]n3)cc2)c1)OCc1ccccc1	> 50 µM	> 50 µM		
CNC(=O)[C@H](Nc1cc(Cl)cc(NC(=O)OCc2ccccc2)c1)c1cccc(-c2nn[nH]n2)c1	> 50 µM	> 50 µM		
Cc1ccc(-c2nnn[nH]2)cc1NC(=O)c1cc(Cl)cc(NC(=O)OCc2ccccc2)c1	> 50 µM	> 50 µM		
CNC(=O)[C@H](Nc1cc(Cl)cc(NC(=O)OCc2ccccc2)c1)c1cccc(CN)c1			24.2 µM	
NCc1cccc(NC(=O)c2cc(Cl)cc(N3CCCC3=O)c2)c1				> 50 µM

Structure (SMILES)	CC50 [1, 3]	CC10 ([1]; veroe6/tmprss2)	CC50 [2]	CC50 ([1]; veroe6/tmprss2)
O=C(NCC1CCOCC1)[C@H](Nc1ccc2c(c1)CNC2)c1cc(Cl)cc2[nH]ncc12	> 50 µM	> 50 µM		
O=C(Nc1cc(Cl)cc(C(=O)Nc2ccc([C@@H]3C[C@H]3C(=O)O)cc2)c1)OCc1ccccc1			21.1 µM	
CC[C@H](Cc1nnn[nH]1)c1ccc(NC(=O)c2cc(Cl)cc(-n3cccc3)c2)cc1	> 50 µM	> 50 µM		
CC(=O)Nc1cc(Cl)cc(C(=O)Nc2cccc(CN)c2)c1	> 50 µM	> 50 µM		
O=C(Nc1cnc2c(c1)CNCC2)c1cc(Cl)cc2[nH]ncc12	> 50 µM	> 50 µM		
NCc1ccc([C@H]2C[C@@H]2c2cc(Cl)cc(NC(=O)OCc3ccccc3)c2)cc1			3.51 µM	
CC[C@H](Cc1nnn[nH]1)c1ccc(NC(=O)[C@H]2[C@H]3CCCCC[C@H]3[C@H]2NC(=O)OCc2ccccc2)cc1	> 50 µM	> 50 µM		
O=C(Nc1cc(Cl)cc(S(=O)(=O)Nc2cccc(-c3nn[nH]n3)c2)c1)OCc1ccccc1	> 50 µM	> 50 µM		
O=C(Nc1cc(Cl)cc([C@H]2C[C@@H]2c2cccc(-c3nnn[nH]3)c2)c1)OCc1ccccc1			16.3 µM	
O=C(Nc1ccc2c(c1)CNC2)c1cc(Cl)ccc1SC1CCCC1	> 50 µM	41.64 µM		
CNC(=O)[C@H](Nc1cccc(CN)c1)c1cc(Cl)cc(NC(=O)OCc2ccccc2)c1			23.7 µM	
O=C(Nc1cc(Cl)cc(C(=O)Nc2ccc3c(c2)CNCCO3)c1)OCc1ccccc1	> 50 µM	< 0.023 µM		
COc1ccc(CCNc2nc(N3CCc4cc(OC)c(OC)cc4C3)c3cc(OC)c(OC)cc3n2)cc1OC		< 0.005 µM		
NCc1cccc(NC(=O)c2cc(Cl)cc3c2CCC3)c1				> 50 µM
CCCCCC(=O)N[C@H](C(=O)NCc1ccc(N)nc1)c1ccc(OCc2ccccc2)cc1			3.63 µM	
C[C@@]1(O)[C@H](O)[C@@H](CO)O[C@H]1n1ccc(N)nc1=O			> 200 µM	
O=C(Nc1cc(Cl)cc(C(=O)Nc2cccc([C@H]3CCNC3)c2)c1)OCc1ccccc1	20.1 µM	2.776 µM		
CC[C@H](Cc1nnn[nH]1)c1ccc(NC(=O)c2cc(Cl)cc(C3CC3)c2)cc1	> 50 µM	> 50 µM		
O=C(O)CCc1ccc(NC(=O)c2cc(Cl)cc(NC(=O)OCc3ccccc3)c2)cc1	> 50 µM	> 50 µM		
NCc1cccc(NC(=O)c2cc(Cl)cc(CN)c2)c1				> 50 µM

Structure (SMILES)	CC50 [1, 3]	CC10 ([1]; veroe6/tmprss2)	CC50 [2]	CC50 ([1]; veroe6/tmprss2)
CCOC(=O)[C@H]1[C@H](c2cc(Cl)cc(NC(=O)OCc3ccccc3)c2)[C@H]1c1cccc(-c2nnn[nH]2)c1	> 50 µM	> 50 µM		
N#C[C@H](Nc1cccc(-c2nn[nH]n2)c1)c1cc(Cl)cc(NC(=O)OCc2ccccc2)c1	> 50 µM	> 50 µM		
C=CC[C@H](Nc1cccc(-c2nn[nH]n2)c1)c1cc(Cl)cc2[nH]ncc12	> 5 µM	> 5 µM		
c1ccc2c(CN3CCC(c4cscn4)CC3)c[nH]c2c1				> 50 µM
NCc1cccc(CNC(=O)[C@@H](NC(=O)OCc2ccccc2)c2ccc(OCc3ccccc3)cc2)c1			1.9 µM	
O=C(Nc1cc(Cl)cc(C(=O)Nc2cc(-c3nnn[nH]3)ccc2F)c1)OCc1ccccc1	> 50 µM	> 50 µM		
O=C(Nc1cc(Cl)cc(C(=O)Nc2cc(Br)cc(-c3nnn[nH]3)c2)c1)OCc1ccccc1	> 50 µM	> 50 µM		
NCc1cccc(NC(=O)[C@H]2[C@H]3CCCCC[C@H]3[C@H]2NC(=O)OCc2ccccc2)c1	10.3 µM	0.166 µM		
CCOC(=O)Nc1cc(Cl)cc(C(=O)Nc2cccc(CN)c2)c1	> 50 µM	> 50 µM		
NCc1cccc([C@@H]2C[C@H]2c2cc(Cl)cc(NC(=O)OCc3ccccc3)c2)c1	> 50 µM	> 50 µM		
NCCCc1ccnc(NC(=O)c2cc(Cl)cc(NC(=O)OCc3ccccc3)c2)c1	16.2 µM	2.116 µM		
Clc1cccc([C@H](C#Cc2ccccc2)Nc2cccc(-c3nn[nH]n3)c2)c1			6.84 µM	
O=C(O)c1cc(Cl)ccc1S(=O)(=O)NC1CCN(c2nc(C3CC3)cc(C(F)(F)F)n2)CC1				> 10 µM and 49.7 µM
N[C@H]1CC[C@H](c2ccc(NC(=O)c3cc(Cl)cc(NC(=O)OCc4ccccc4)c3)cc2)C1			2.84 µM	
CC[C@H](Cc1nn[nH]n1)c1ccc(N[C@H](C(=O)NC)c2cc(Cl)cc(NC(=O)OCc3ccccc3)c2)cc1	> 50 µM	> 50 µM		
CN(C)C(=O)c1cc(CN)cc([C@@H]2C[C@H]2c2cc(Cl)cc(NC(=O)OCc3ccccc3)c2)c1			4.09 µM	
CCCC(=O)Nc1cc(Cl)cc(C(=O)Nc2cccc(CN)c2)c1	> 50 µM	> 50 µM		
NCc1ccc2c(c1)[C@H]1OCCC[C@H]1[C@H](c1cc(Cl)cc(NC(=O)OCc3ccccc3)c1)N2			5.8 µM	
O=C(Nc1cc(Cl)cc(CNc2cccc(-c3nn[nH]n3)c2)c1)OCc1ccccc1			> 50 µM	
